Reference: ChEMBL document CHEMBL3045383, “Synthesis, characterization, anticancer activity, and QSAR-studies of some new tetrahydropyrimidines” (2011)

How the values were obtained:
Assay type in all cases: functional
CAKI-1 = test: Cytotoxicity against Homo sapiens (human) CAKI-1 cells after 48 hr by SRB assay; details: CAKI-1, 48 h
SF-268 = test: Cytotoxicity against Homo sapiens (human) SF268 cells after 48 hr by SRB assay; details: SF-268, 48 h
SK-MEL-5 = test: Cytotoxicity against Homo sapiens (human) SK-MEL-5 cells after 48 hr by SRB assay; details: SK-MEL-5, 48 h
COLO 205 = test: Cytotoxicity against Homo sapiens (human) COLO205 cells after 48 hr by SRB assay; details: COLO 205, 48 h
IGROV-1 = test: Cytotoxicity against Homo sapiens (human) IGROV1 cells after 48 hr by SRB assay; details: IGROV-1, 48 h
PC-3 = test: Cytotoxicity against Homo sapiens (human) PC3 cells after 48 hr by SRB assay; details: PC-3, 48 h
NCI/ADR-RES = test: Cytotoxicity against Homo sapiens (human) NCI/ADR-RES cells after 48 hr by SRB assay
HOP-92 = test: Cytotoxicity against Homo sapiens (human) HOP92 cells after 48 hr by SRB assay; details: HOP-92, 48 h
HL-60(TB) = test: Cytotoxicity against Homo sapiens (human) HL-60(TB) cells after 48 hr by SRB assay; details: HL-60, 48 h

Question: Which results are given for `COc1cccc(C2NC(=S)NC(C)=C2C(=O)Nc2ccc(F)c(Cl)c2)c1` (stereo not drawn)?
Answer: GI50 (CAKI-1): 49 µM; GI50 (SF-268): 18.2 µM; GI50 (SK-MEL-5): 13.2 µM; GI50 (COLO 205): 26.9 µM; GI50 (IGROV-1): 27.5 µM; GI50 (PC-3): 23.4 µM; GI50 (NCI/ADR-RES): 15.5 µM; GI50 (HOP-92): 50.1 µM; GI50 (HL-60(TB)): 17.4 µM

Question: With `CC1=C(C(=O)Nc2ccc(Cl)c(Cl)c2)C(c2cccc(Oc3ccccc3)c2)NC(=S)N1` (stereo not drawn) as the compound, how does the GI50 (CAKI-1) read?
Answer: 8.51 µM

Question: And the GI50 (SF-268)?
Answer: 6.17 µM

Question: What about the GI50 (SK-MEL-5) of the same compound?
Answer: 7.94 µM

Question: What about the GI50 (COLO 205) of the same compound?
Answer: 9.33 µM

Question: And the GI50 (IGROV-1)?
Answer: 7.76 µM

Question: What about the GI50 (PC-3) of the same compound?
Answer: 9.77 µM

Question: What about the GI50 (NCI/ADR-RES) of the same compound?
Answer: 15.5 µM

Question: And the GI50 (HOP-92)?
Answer: 13.2 µM

Question: What about the GI50 (HL-60(TB)) of the same compound?
Answer: 83.2 µM

Question: What does the source list for `CC1=C(C(=O)Nc2ccc(F)c(Cl)c2)C(c2cccc(O)c2)NC(=S)N1` (stereo not drawn)?
Answer: GI50 (CAKI-1): 50.1 µM; GI50 (SF-268): 17.8 µM; GI50 (SK-MEL-5): 11.2 µM; GI50 (COLO 205): 22.4 µM; GI50 (IGROV-1): 22.9 µM; GI50 (PC-3): 25.1 µM; GI50 (NCI/ADR-RES): 17 µM; GI50 (HOP-92): 50.1 µM; GI50 (HL-60(TB)): 25.7 µM

Question: Which results are given for `CC1=C(C(=O)Nc2ccc(Cl)c(Cl)c2)C(c2cccc(O)c2)NC(=S)N1` (stereo not drawn)?
Answer: GI50 (CAKI-1): 22.4 µM; GI50 (SF-268): 15.8 µM; GI50 (SK-MEL-5): 10 µM; GI50 (COLO 205): 7.08 µM; GI50 (IGROV-1): 19.1 µM; GI50 (PC-3): 14.1 µM; GI50 (NCI/ADR-RES): 15.8 µM; GI50 (HOP-92): 13.5 µM; GI50 (HL-60(TB)): 11.2 µM

Question: How did the GI50 (CAKI-1) turn out when `CC1=C(C(=O)Nc2ccc(F)c(Cl)c2)C(c2ccccc2Cl)NC(=S)N1` (stereo not drawn) was run?
Answer: 31.6 µM

Question: And the GI50 (SF-268)?
Answer: 14.8 µM

Question: And the GI50 (SK-MEL-5)?
Answer: 12.3 µM

Question: What about the GI50 (COLO 205) of the same compound?
Answer: 24 µM

Question: What about the GI50 (IGROV-1) of the same compound?
Answer: 17.8 µM

Question: And the GI50 (PC-3)?
Answer: 20.4 µM

Question: And the GI50 (NCI/ADR-RES)?
Answer: 16.6 µM

Question: And the GI50 (HOP-92)?
Answer: 50.1 µM

Question: What about the GI50 (HL-60(TB)) of the same compound?
Answer: 25.7 µM

Question: For `CC1=C(C(=O)Nc2ccc(Cl)c(Cl)c2)C(c2ccccc2O)NC(=O)N1` (stereo not drawn), which GI50 (CAKI-1) is on record?
Answer: 39.8 µM

Question: And the GI50 (SF-268)?
Answer: 28.2 µM

Question: What about the GI50 (SK-MEL-5) of the same compound?
Answer: 12.6 µM

Question: And the GI50 (COLO 205)?
Answer: 28.2 µM

Question: What about the GI50 (IGROV-1) of the same compound?
Answer: 25.1 µM

Question: What about the GI50 (PC-3) of the same compound?
Answer: 33.9 µM

Question: What about the GI50 (NCI/ADR-RES) of the same compound?
Answer: 17.8 µM

Question: What about the GI50 (HOP-92) of the same compound?
Answer: 50.1 µM

Question: And the GI50 (HL-60(TB))?
Answer: 50.1 µM

Question: For `CC1=C(C(=O)Nc2ccc(F)c(Cl)c2)C(c2cccc(Cl)c2)NC(=S)N1` (stereo not drawn), which GI50 (CAKI-1) is on record?
Answer: 39.8 µM

Question: And the GI50 (SF-268)?
Answer: 10 µM

Question: And the GI50 (SK-MEL-5)?
Answer: 8.32 µM

Question: What about the GI50 (COLO 205) of the same compound?
Answer: 4.17 µM

Question: And the GI50 (IGROV-1)?
Answer: 14.1 µM

Question: What about the GI50 (PC-3) of the same compound?
Answer: 25.1 µM

Question: And the GI50 (NCI/ADR-RES)?
Answer: 15.8 µM

Question: What about the GI50 (HOP-92) of the same compound?
Answer: 32.4 µM

Question: And the GI50 (HL-60(TB))?
Answer: 16.2 µM

Question: What does the source list for `CC1=C(C(=O)Nc2ccc(F)c(Cl)c2)C(c2cccc(Oc3ccccc3)c2)NC(=S)N1` (stereo not drawn)?
Answer: GI50 (CAKI-1): 12.6 µM; GI50 (SF-268): 8.91 µM; GI50 (SK-MEL-5): 8.91 µM; GI50 (COLO 205): 17.8 µM; GI50 (IGROV-1): 10.7 µM; GI50 (PC-3): 12 µM; GI50 (NCI/ADR-RES): 15.5 µM; GI50 (HOP-92): 20.9 µM; GI50 (HL-60(TB)): 17.4 µM

Question: For `CC1=C(C(=O)Nc2ccc(Cl)c(Cl)c2)C(c2ccccc2Cl)NC(=S)N1` (stereo not drawn), which GI50 (CAKI-1) is on record?
Answer: 17.8 µM

Question: What about the GI50 (SF-268) of the same compound?
Answer: 8.91 µM

Question: What about the GI50 (SK-MEL-5) of the same compound?
Answer: 10 µM

Question: And the GI50 (COLO 205)?
Answer: 7.94 µM

Question: What about the GI50 (IGROV-1) of the same compound?
Answer: 15.8 µM

Question: What about the GI50 (PC-3) of the same compound?
Answer: 20 µM

Question: And the GI50 (NCI/ADR-RES)?
Answer: 15.8 µM

Question: What about the GI50 (HOP-92) of the same compound?
Answer: 1.2 µM

Question: What about the GI50 (HL-60(TB)) of the same compound?
Answer: 15.5 µM

Question: Which GI50 (CAKI-1) does the source give for `COc1cccc(C2NC(=S)NC(C)=C2C(=O)Nc2ccc(Cl)c(Cl)c2)c1` (stereo not drawn) here?
Answer: 17.8 µM

Question: What about the GI50 (SF-268) of the same compound?
Answer: 12.6 µM

Question: And the GI50 (SK-MEL-5)?
Answer: 9.55 µM

Question: And the GI50 (COLO 205)?
Answer: 9.33 µM

Question: What about the GI50 (IGROV-1) of the same compound?
Answer: 15.8 µM

Question: What about the GI50 (PC-3) of the same compound?
Answer: 14.5 µM

Question: What about the GI50 (NCI/ADR-RES) of the same compound?
Answer: 16.6 µM

Question: And the GI50 (HOP-92)?
Answer: 12.6 µM

Question: And the GI50 (HL-60(TB))?
Answer: 49 µM

Question: Which GI50 (CAKI-1) does the source give for `CC1=C(C(=O)Nc2ccc(Cl)c(Cl)c2)C(c2cccc(Cl)c2)NC(=O)N1` (stereo not drawn) here?
Answer: 12.6 µM

Question: And the GI50 (SF-268)?
Answer: 11.2 µM

Question: What about the GI50 (SK-MEL-5) of the same compound?
Answer: 9.55 µM

Question: And the GI50 (COLO 205)?
Answer: 7.94 µM

Question: And the GI50 (IGROV-1)?
Answer: 10.5 µM

Question: What about the GI50 (PC-3) of the same compound?
Answer: 50.1 µM

Question: What about the GI50 (NCI/ADR-RES) of the same compound?
Answer: 16.6 µM

Question: And the GI50 (HOP-92)?
Answer: 45.7 µM

Question: What about the GI50 (HL-60(TB)) of the same compound?
Answer: 13.5 µM

Question: How did the GI50 (CAKI-1) turn out when `CC1=C(C(=O)Nc2ccc(F)c(Cl)c2)C(c2cccc(Oc3ccccc3)c2)NC(=O)N1` (stereo not drawn) was run?
Answer: 10 µM

Question: And the GI50 (SF-268)?
Answer: 8.51 µM

Question: And the GI50 (SK-MEL-5)?
Answer: 7.59 µM

Question: And the GI50 (COLO 205)?
Answer: 6.31 µM

Question: What about the GI50 (IGROV-1) of the same compound?
Answer: 7.94 µM

Question: And the GI50 (PC-3)?
Answer: 22.4 µM

Question: What about the GI50 (NCI/ADR-RES) of the same compound?
Answer: 16.2 µM

Question: And the GI50 (HOP-92)?
Answer: 40.7 µM

Question: What about the GI50 (HL-60(TB)) of the same compound?
Answer: 13.8 µM
